# Legend:
# [1] = tested on: DNA; assay: Binding affinity to calf thymus DNA assessed as change in melting temperature at a compound to DNA molar ratio of 1:5 at pH 7 by thermal denaturation assay; format: nucleic-acid assay; conditions: Bos taurus
# [2] = tested on: OVCAR-4; assay: Growth inhibition of human OVCAR4 cells after 48 hrs by sulforhodamine B protein assay; format: functional; conditions: OVCAR-4, 48 h
# [3] = tested on: OVCAR-8; assay: Growth inhibition of human OVCAR8 cells after 48 hrs by sulforhodamine B protein assay; format: functional; conditions: OVCAR-8, 48 h
# [4] = tested on: HOP-62; assay: Growth inhibition of human HOP62 cells after 48 hrs by sulforhodamine B protein assay; format: functional; conditions: HOP-62, 48 h
# [5] = tested on: HCT-15; assay: Growth inhibition of human HCT15 cells after 48 hrs by sulforhodamine B protein assay; format: functional; conditions: HCT-15, 48 h
# [6] = tested on: HL-60(TB); assay: Growth inhibition of human HL-60(TB) cells after 48 hrs by sulforhodamine B protein assay; format: functional; conditions: HL-60, 48 h
# [7] = tested on: SK-OV-3; assay: Growth inhibition of human SKOV3 cells after 48 hrs by sulforhodamine B protein assay; format: functional; conditions: SK-OV-3, 48 h
# [8] = tested on: COLO 205; assay: Growth inhibition of human COLO205 cells after 48 hrs by sulforhodamine B protein assay; format: functional; conditions: COLO 205, 48 h
# [9] = tested on: IGROV-1; assay: Growth inhibition of human IGROV1 cells after 48 hrs by sulforhodamine B protein assay; format: functional; conditions: IGROV-1, 48 h
# [10] = tested on: MCF7; assay: Growth inhibition of human MCF7 cells after 48 hrs by sulforhodamine B protein assay; format: functional; conditions: MCF7, 48 h
# [11] = tested on: HCT-116; assay: Growth inhibition of human HCT116 cells after 48 hrs by sulforhodamine B protein assay; format: functional; conditions: HCT-116, 48 h
# [12] = tested on: OVCAR-5; assay: Growth inhibition of human OVCAR5 cells after 48 hrs by sulforhodamine B protein assay; format: functional; conditions: OVCAR-5, 48 h
# [13] = tested on: SF-295; assay: Growth inhibition of human SF295 cells after 48 hrs by sulforhodamine B protein assay; format: functional; conditions: SF-295, 48 h
# [14] = tested on: SR; assay: Growth inhibition of human SR cells after 48 hrs by sulforhodamine B protein assay; format: functional
# [15] = tested on: OVCAR-3; assay: Growth inhibition of human OVCAR-3 cells after 48 hrs by sulforhodamine B protein assay; format: functional; conditions: OVCAR-3, 48 h
# [16] = tested on: HCC 2998; assay: Growth inhibition of human HCC2998 cells after 48 hrs by sulforhodamine B protein assay; format: functional; conditions: HCC 2998, 48 h
# [17] = tested on: UO-31; assay: Growth inhibition of human UO31 cells after 48 hrs by sulforhodamine B protein assay; format: functional; conditions: UO-31, 48 h
# [18] = tested on: CCRF-CEM; assay: Growth inhibition of human CCRF-CEM cells after 48 hrs by sulforhodamine B protein assay; format: functional
# [19] = tested on: ACHN; assay: Growth inhibition of human ACHN cells after 48 hrs by sulforhodamine B protein assay; format: functional
# [20] = tested on: NCI-H522; assay: Growth inhibition of human NCI-H522 cells after 48 hrs by sulforhodamine B protein assay; format: functional; conditions: NCI-H522, 48 h
# [21] = tested on: HT-29; assay: Growth inhibition of human HT-29 cells after 48 hrs by sulforhodamine B protein assay; format: functional; conditions: HT-29, 48 h
# [22] = tested on: UACC-62; assay: Growth inhibition of human UACC62 cells after 48 hrs by sulforhodamine B protein assay; format: functional; conditions: UACC-62, 48 h
# [23] = tested on: T47D; assay: Growth inhibition of human T47D cells after 48 hrs by sulforhodamine B protein assay; format: functional
# [24] = target: T1, Type II restriction enzyme BamHI (Bacillus amyloliquefaciens) (UniProt P23940); assay: Inhibition of Bacillus amyloliquefaciens BamH1-mediated pBR322 cleavage after 16 hrs by RED100-restriction endonuclease digestion assay
# T1 sequence (whole entry): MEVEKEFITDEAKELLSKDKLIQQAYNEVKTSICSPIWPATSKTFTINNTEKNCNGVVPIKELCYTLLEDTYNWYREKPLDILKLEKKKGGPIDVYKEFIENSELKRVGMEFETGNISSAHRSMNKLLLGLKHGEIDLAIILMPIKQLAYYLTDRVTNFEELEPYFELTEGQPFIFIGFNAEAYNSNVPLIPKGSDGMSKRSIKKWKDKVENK
# [25] = tested on: MOLT-4; assay: Growth inhibition of human MOLT4 cells after 48 hrs by sulforhodamine B protein assay; format: functional; conditions: MOLT-4, 48 h
# [26] = tested on: SK-MEL-2; assay: Growth inhibition of human SK-MEL-2 cells after 48 hrs by sulforhodamine B protein assay; format: functional; conditions: SK-MEL-2, 48 h
# [27] = tested on: LOX IMVI; assay: Growth inhibition of human LOXIMVI cells after 48 hrs by sulforhodamine B protein assay; format: functional
# [28] = tested on: NCI-H460; assay: Growth inhibition of human NCI-H460 cells after 48 hrs by sulforhodamine B protein assay; format: functional; conditions: NCI-H460, 48 h
# [29] = tested on: K562; assay: Growth inhibition of human K562 cells after 48 hrs by sulforhodamine B protein assay; format: functional; conditions: K562, 48 h
# [30] = tested on: KM12; assay: Growth inhibition of human KM12 cells after 48 hrs by sulforhodamine B protein assay; format: functional; conditions: KM12, 48 h
# [31] = tested on: 786-0; assay: Growth inhibition of human 786-0 cells after 48 hrs by sulforhodamine B protein assay; format: functional; conditions: 786-0, 48 h
# [32] = tested on: SNB-75; assay: Growth inhibition of human SNB75 cells after 48 hrs by sulforhodamine B protein assay; format: functional; conditions: SNB-75, 48 h
# [33] = tested on: TK-10; assay: Growth inhibition of human TK10 cells after 48 hrs by sulforhodamine B protein assay; format: functional; conditions: TK-10, 48 h
# [34] = tested on: NCI-H322M; assay: Growth inhibition of human NCI-H322M cells after 48 hrs by sulforhodamine B protein assay; format: functional
# [35] = tested on: DU-145; assay: Growth inhibition of human DU145 cells after 48 hrs by sulforhodamine B protein assay; format: functional; conditions: DU-145, 48 h
# [36] = tested on: PC-3; assay: Growth inhibition of human PC3 cells after 48 hrs by sulforhodamine B protein assay; format: functional; conditions: PC-3, 48 h
# [37] = tested on: U-251; assay: Growth inhibition of human U251 cells after 48 hrs by sulforhodamine B protein assay; format: functional; conditions: U-251, 48 h
# [38] = Growth inhibition of human Hs 578T cells after 48 hrs by sulforhodamine B protein assay; format: functional
# [39] = tested on: NCI-H23; assay: Growth inhibition of human NCI-H23 cells after 48 hrs by sulforhodamine B protein assay; format: functional; conditions: NCI-H23, 48 h
# [40] = Growth inhibition of human […] cells after 48 hrs by sulforhodamine B protein assay; format: functional
# [41] = tested on: NCI-H226; assay: Growth inhibition of human NCI-H226 cells after 48 hrs by sulforhodamine B protein assay; format: functional; conditions: NCI-H226, 48 h
# [42] = tested on: MDA-MB-231; assay: Growth inhibition of human MDA-MB-231 cells after 48 hrs by sulforhodamine B protein assay; format: functional; conditions: MDA-MB-231, 48 h
# [43] = tested on: SN12C; assay: Growth inhibition of human SN12C cells after 48 hrs by sulforhodamine B protein assay; format: functional
# [44] = tested on: UACC-257; assay: Growth inhibition of human UACC257 cells after 48 hrs by sulforhodamine B protein assay; format: functional; conditions: UACC-257, 48 h
# [45] = tested on: SW-620; assay: Growth inhibition of human SW620 cells after 48 hrs by sulforhodamine B protein assay; format: functional; conditions: SW-620, 48 h
# [46] = tested on: Malme-3M; assay: Growth inhibition of human MALME-3M cells after 48 hrs by sulforhodamine B protein assay; format: functional
# [47] = tested on: CAKI-1; assay: Growth inhibition of human Caki1 cells after 48 hrs by sulforhodamine B protein assay; format: functional; conditions: CAKI-1, 48 h
# [48] = tested on: SF-539; assay: Growth inhibition of human SF539 cells after 48 hrs by sulforhodamine B protein assay; format: functional; conditions: SF-539, 48 h
# [49] = tested on: A498; assay: Growth inhibition of human A498 cells after 48 hrs by sulforhodamine B protein assay; format: functional; conditions: A498, 48 h
# [50] = tested on: SK-MEL-28; assay: Growth inhibition of human SK-MEL-28 cells after 48 hrs by sulforhodamine B protein assay; format: functional; conditions: SK-MEL-28, 48 h
# [51] = tested on: MDA-MB-435; assay: Growth inhibition of human MDA-MB-435 cells after 48 hrs by sulforhodamine B protein assay; format: functional; conditions: MDA-MB-435, 48 h
# [52] = tested on: BT-549; assay: Growth inhibition of human BT549 cells after 48 hrs by sulforhodamine B protein assay; format: functional; conditions: BT-549, 48 h
# [53] = tested on: SNB-19; assay: Growth inhibition of human SNB19 cells after 48 hrs by sulforhodamine B protein assay; format: functional; conditions: SNB-19, 48 h
# [54] = tested on: EKVX; assay: Growth inhibition of human EKVX cells after 48 hrs by sulforhodamine B protein assay; format: functional
# [55] = tested on: A549; assay: Growth inhibition of human A549 cells after 48 hrs by sulforhodamine B protein assay; format: functional; conditions: A549, 48 h
structure (smiles),measurement,setting,value
COc1cc2c(cc1OCCCOc1cc3c(cc1OC)C(=O)N1CCC[C@H]1C=N3)N=C[C@@H]1CCCN1C2=O,ΔTm,[1],10.2 °C
COc1cc2c(cc1OCCCCCN1CCN(CCCCCOc3cc4c(cc3OC)C(=O)N3CC(F)(F)C[C@H]3C=N4)CC1)N=C[C@@H]1CC(F)(F)CN1C2=O,ΔTm,[1],13 °C
COc1cc2c(cc1OCCCOc1cc3c(cc1OC)C(=O)N1CC(F)(F)C[C@H]1C=N3)N=C[C@@H]1CC(F)(F)CN1C2=O,GI50,[2],1450 nM
same,GI50,[3],420 nM
same,GI50,[4],100 nM
same,ΔTm,[1],13.1 °C
same,GI50,[5],8620 nM
same,GI50,[6],250 nM
same,GI50,[7],600 nM
same,GI50,[8],580 nM
same,GI50,[9],110 nM
same,GI50,[10],130 nM
same,GI50,[11],130 nM
same,GI50,[12],750 nM
same,GI50,[13],< 30 nM
same,GI50,[14],< 60 nM
same,GI50,[15],940 nM
same,GI50,[16],1030 nM
same,GI50,[17],1050 nM
same,GI50,[18],410 nM
same,GI50,[19],650 nM
same,GI50,[20],140 nM
same,GI50,[21],270 nM
same,GI50,[22],410 nM
same,GI50,[23],240 nM
same,Activity,[24],Dose-dependent effect
same,GI50,[25],80 nM
same,GI50,[26],1620 nM
same,GI50,[27],200 nM
same,GI50,[28],< 80 nM
same,GI50,[29],530 nM
same,GI50,[30],2070 nM
same,GI50,[31],< 10 nM
same,GI50,[32],80 nM
same,GI50,[33],3450 nM
same,GI50,[34],2190 nM
same,GI50,[35],370 nM
same,GI50,[36],< 80 nM
same,GI50,[37],110 nM
same,GI50,[38],170 nM
same,GI50,[39],490 nM
same,GI50,[40],1670 nM
same,GI50,[41],620 nM
same,GI50,[42],800 nM
same,GI50,[43],170 nM
same,GI50,[44],1330 nM
same,GI50,[45],310 nM
same,GI50,[46],1030 nM
same,GI50,[47],< 10 nM
same,GI50,[48],150 nM
same,GI50,[49],610 nM
same,GI50,[50],1130 nM
same,GI50,[51],570 nM
same,GI50,[52],410 nM
same,GI50,[53],350 nM
same,GI50,[54],1720 nM
same,GI50,[55],1210 nM
COc1cc2c(cc1OCCCCCOc1cc3c(cc1OC)C(=O)N1CC(F)(F)C[C@H]1C=N3)N=C[C@@H]1CC(F)(F)CN1C2=O,ΔTm,[1],18.9 °C
COc1cc2c(cc1OCCCCOc1cc3c(cc1OC)C(=O)N1CC(F)(F)C[C@H]1C=N3)N=C[C@@H]1CC(F)(F)CN1C2=O,ΔTm,[1],4.2 °C
